This is an account of results in patent publication US4237307A, “15-Deoxy-16-hydroxy-16-methyl-Δ19-prostaglandins of the E and F series” (American Cyanamid Company, priority 1979, dated 1980).

What all share (type): in vivo, Guinea-Pigs
Experiment [1] concerns bronchospasms elicited by intravenous injections of serotonin. In words: Konzett procedure: bronchodilator activity against serotonin-induced bronchospasm, i.v. The conditions noted are these: Cavia porcellus; guinea pig; spasmogen serotonin i.v.; three logarithmic cumulative intravenous doses. The protocol:
(§1) The bronchodilator activity for representative compounds of this invention was determined in Guinea-Pigs against bronchospasms elicited by intravenous injections of serotonin, histamine, and acetylcholine, by the Konzett procedure the details of which are those discussed by J. Lulling, P Lievens, F. El Sayed and J. Prignot, Arzeimittel-Forschung 18, 995 (1968).
(§2) In the table which follows, bronchodilator activity for representative compounds of the invention against spasmogenic agents serotonin, histamine, and acetylcholine is expressed as an ED50 determined from the results obtained with three logarithmic cumulative intravenous doses.

The test system of experiment [2] is bronchospasms elicited by intravenous injections of histamine. In words: Konzett procedure: bronchodilator activity against histamine-induced bronchospasm, i.v. The conditions noted are these: Cavia porcellus; guinea pig; spasmogen histamine i.v.; three logarithmic cumulative intravenous doses. The protocol: as §1, §2
The subject of experiment [3] is bronchospasms elicited by intravenous injections of acetylcholine. In words: Konzett procedure: bronchodilator activity against acetylcholine-induced bronchospasm, i.v. The following applies: Cavia porcellus; guinea pig; spasmogen acetylcholine i.v.; three logarithmic cumulative intravenous doses. The protocol: as §1, §2

SMILES strings stand for the structures.

Regarding `C=CCCC(C)(O)C/C=C/[C@H]1[C@H](O)CC(=O)[C@@H]1C/C=C\CCCC(=O)O` (relative stereo) [dl-11α,16-DIHYDROXY-9-OXO-16-METHYL-5-cis-13-trans-Δ^19 PROSTATRIENOIC ACID], the figures for the median effective dose (ED50) in experiment [1], in experiment [2] and in experiment [3] were 3.8 µg/kg, 6.4 µg/kg and 10.6 µg/kg, respectively.
